biological target: T1, recombinant human ACC2 (Homo sapiens, UniProt O00763); assay: Measurement of inhibitory activity on human ACC2 (MALDI-TOF MS, acetyl CoA to malonyl CoA conversion); type: biochemical; details: not given
T1 construct: a cDNA encoding human ACC2 (27-2458) was cloned from human kidney cDNA library (Clontech); His-tag (N); made in house; host or cells: Sf-9 insect cells (Bac-to-Bac baculovirus)
T1 sequence (O00763 27-2458): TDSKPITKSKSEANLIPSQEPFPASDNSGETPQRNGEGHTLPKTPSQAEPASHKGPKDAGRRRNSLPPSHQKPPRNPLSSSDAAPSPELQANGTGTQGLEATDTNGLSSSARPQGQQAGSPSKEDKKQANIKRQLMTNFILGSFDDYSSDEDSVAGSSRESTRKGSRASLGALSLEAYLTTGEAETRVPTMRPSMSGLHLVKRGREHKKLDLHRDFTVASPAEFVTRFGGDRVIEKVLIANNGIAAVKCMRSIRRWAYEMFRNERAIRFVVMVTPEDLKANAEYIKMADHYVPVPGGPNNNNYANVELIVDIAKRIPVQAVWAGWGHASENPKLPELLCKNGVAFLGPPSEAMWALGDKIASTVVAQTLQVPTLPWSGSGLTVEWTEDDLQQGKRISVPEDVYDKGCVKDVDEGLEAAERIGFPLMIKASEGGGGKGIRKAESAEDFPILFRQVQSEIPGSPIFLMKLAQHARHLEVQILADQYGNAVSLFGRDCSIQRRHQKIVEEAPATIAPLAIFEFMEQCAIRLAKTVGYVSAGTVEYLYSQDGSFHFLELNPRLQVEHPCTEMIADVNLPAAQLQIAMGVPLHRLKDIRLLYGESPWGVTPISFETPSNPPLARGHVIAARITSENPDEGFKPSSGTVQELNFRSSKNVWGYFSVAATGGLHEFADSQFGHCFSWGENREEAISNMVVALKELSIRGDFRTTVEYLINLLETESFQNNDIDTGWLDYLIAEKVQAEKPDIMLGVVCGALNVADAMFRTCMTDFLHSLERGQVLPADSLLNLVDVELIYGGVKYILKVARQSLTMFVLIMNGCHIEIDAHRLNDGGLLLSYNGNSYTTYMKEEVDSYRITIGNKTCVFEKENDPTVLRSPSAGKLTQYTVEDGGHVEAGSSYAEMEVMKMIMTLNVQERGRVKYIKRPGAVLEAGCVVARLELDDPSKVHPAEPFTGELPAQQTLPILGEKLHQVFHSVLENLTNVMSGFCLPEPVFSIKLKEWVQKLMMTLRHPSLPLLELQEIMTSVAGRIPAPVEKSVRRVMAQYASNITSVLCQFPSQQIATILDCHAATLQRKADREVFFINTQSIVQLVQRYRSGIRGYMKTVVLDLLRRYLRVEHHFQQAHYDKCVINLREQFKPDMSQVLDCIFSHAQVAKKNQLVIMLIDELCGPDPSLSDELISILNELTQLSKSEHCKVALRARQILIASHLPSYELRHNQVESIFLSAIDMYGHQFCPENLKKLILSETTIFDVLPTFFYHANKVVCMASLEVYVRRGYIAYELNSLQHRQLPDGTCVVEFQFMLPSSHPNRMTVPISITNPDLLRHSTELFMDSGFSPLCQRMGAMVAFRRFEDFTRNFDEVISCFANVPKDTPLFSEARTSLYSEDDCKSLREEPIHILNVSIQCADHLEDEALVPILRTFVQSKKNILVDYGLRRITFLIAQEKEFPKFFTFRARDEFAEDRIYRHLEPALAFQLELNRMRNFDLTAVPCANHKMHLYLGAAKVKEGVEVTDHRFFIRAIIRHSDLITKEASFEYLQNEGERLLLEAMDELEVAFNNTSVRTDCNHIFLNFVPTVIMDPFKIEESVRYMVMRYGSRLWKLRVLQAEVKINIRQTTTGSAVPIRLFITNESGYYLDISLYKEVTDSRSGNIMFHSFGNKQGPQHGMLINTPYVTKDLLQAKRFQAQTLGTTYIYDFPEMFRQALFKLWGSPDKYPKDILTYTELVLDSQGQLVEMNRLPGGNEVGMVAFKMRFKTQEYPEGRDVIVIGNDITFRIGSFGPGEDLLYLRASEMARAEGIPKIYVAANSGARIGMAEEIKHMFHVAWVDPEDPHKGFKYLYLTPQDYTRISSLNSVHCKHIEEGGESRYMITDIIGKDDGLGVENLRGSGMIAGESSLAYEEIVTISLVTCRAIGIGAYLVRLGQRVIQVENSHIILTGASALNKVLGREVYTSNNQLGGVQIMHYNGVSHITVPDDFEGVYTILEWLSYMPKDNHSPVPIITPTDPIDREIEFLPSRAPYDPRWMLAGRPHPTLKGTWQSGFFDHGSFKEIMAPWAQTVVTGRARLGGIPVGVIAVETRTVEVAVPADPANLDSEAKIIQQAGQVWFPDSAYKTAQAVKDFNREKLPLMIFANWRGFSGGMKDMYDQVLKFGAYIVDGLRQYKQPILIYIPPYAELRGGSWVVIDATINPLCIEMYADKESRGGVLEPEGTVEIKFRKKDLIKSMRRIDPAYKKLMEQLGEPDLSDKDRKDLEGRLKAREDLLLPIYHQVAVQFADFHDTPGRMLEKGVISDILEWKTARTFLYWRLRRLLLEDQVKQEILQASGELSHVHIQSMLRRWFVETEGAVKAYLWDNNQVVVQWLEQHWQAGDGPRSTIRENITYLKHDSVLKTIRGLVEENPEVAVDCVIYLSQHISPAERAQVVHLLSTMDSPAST

Row | Compound | IC50 [µM]
1 | CCCc1ccc(Oc2ncc(/C=C/[C@H](C)NC(C)=O)s2)c(Cl)c1 [Compound I-411] | 0.077
2 | CC(=O)N[C@@H](C)/C=C/c1cnc(Oc2ccc(C(C)(C)C(F)(F)F)cc2Cl)cn1 [Compound I-428] | 0.17
3 | CCNC(=O)N[C@@H](C)/C=C/c1cnc(Oc2ccc(OCC3CC3)cc2Cl)s1 [Compound I-195] | 0.061

Further lines, results first:

Row | IC50 [µM] | Compound
4 | 0.2 | CC(=O)N[C@@H](C)/C=C/c1ccc(Oc2ccc(-c3cnccn3)cc2Cl)nc1 [Compound I-412]
5 | 0.16 | CCCc1cc(Cl)c(Oc2ccc(/C=C/[C@H](C)NC(C)=O)cn2)c(Cl)c1 [Compound I-385]
6 | 0.45 | CCCc1ccc(Oc2ccc(/C=C/[C@H](C)NC(C)=O)cn2)c(C#N)c1 [Compound I-403]
7 | 0.029 | CC(=O)N[C@@H](C)/C=C/c1ccc(Oc2ccc(N3CCCCC3)cc2Cl)nc1 [Compound I-383]
8 | 0.026 | CC(=O)N[C@@H](C)/C=C/c1ccc(Oc2cc3c(cc2Cl)CCC3)nc1 [Compound I-426]
9 | 1.3 | CC(=O)N[C@@H](C)/C=C/c1ccc(Oc2ccc(N3CCOCC3)cc2Cl)nc1 [Compound I-382]
10 | 0.055 | CC(=O)N[C@@H](C)/C=C/c1ccc(Oc2ccc(C(F)(F)C(C)C)cc2Cl)nc1 [Compound I-396]

same assay, conditions: inhibition activity on human ACC2, Table 79; read-out: IC50

Row | Compound | IC50 [µM]
11 | C[C@@H](/C=C/c1cnc(Oc2ccc(OCC3CC3)cc2Cl)s1)NC(=O)CCCCCCNC(=O)OC(C)(C)C [Compound I-106] | 0.44
12 | CC(C)COCC(=O)N[C@@H](C)/C=C/c1cnc(Oc2ccc(OCC3CC3)cc2Cl)s1 [Compound I-103] | 0.97
13 | CCOc1ccc(C(F)(F)c2ccc(/C=C/[C@H](C)NC(C)=O)cn2)c(Cl)c1 [Compound I-62] | 0.31
14 | CC(=O)N[C@@H](C)/C=C/c1ccc(Oc2ccc(OCC3CC3)cc2Cl)cc1 [Compound I-57] | 0.0022
15 | C[C@@H](/C=C/c1cnc(Oc2ccc(OCC3CC3)cc2Cl)s1)NC(=O)CN1C(=O)CCC1=O [Compound I-105] | 0.2
16 | COCCOCC(=O)N[C@@H](C)/C=C/c1cnc(Oc2ccc(OCC3CC3)cc2Cl)s1 [Compound I-104] | 0.45
17 | CC(=O)N[C@@H](C)/C=C/c1ccc(Oc2cccc(OC(C)C)c2)nc1 [Compound I-49] | 0.072
18 | CC(=O)NCC(=O)N[C@@H](C)/C=C/c1cnc(Oc2ccc(OCC3CC3)cc2Cl)s1 [Compound I-78] | 0.55
19 | CC(=O)N[C@@H](C)/C=C/c1cnc(Oc2ccc(OCC3CC3)cc2C#N)s1 [Compound I-6] | 0.078
20 | CC(=O)N[C@@H](C)/C=C/c1cnn(CCc2ccc(OCC3CC3)cc2)c1 [Compound I-66] | 5.7
21 | COc1cncc(Oc2ccc(/C=C/[C@H](C)NC(C)=O)cn2)c1 [Compound I-34] | 7.1

Now from value to molecule:

Row | IC50 [µM] | Compound
22 | 0.094 | COc1cccc(Oc2ccc(/C=C/[C@H](C)NC(C)=O)cn2)c1Cl [Compound I-29]
23 | 0.94 | CC(=O)N[C@@H](C)/C=C/c1cnc(Oc2ccc(NC(=O)OC(C)(C)C)cc2Cl)nc1 [Compound I-53]
24 | 0.0069 | CC(=O)N[C@@H](C)/C=C/c1ccc(Oc2ccc(OCC3CC3)cc2Cl)nc1 [Compound I-14]
25 | 0.052 | CCOc1ccc(Oc2ccc(/C=C/[C@H](C)NC(C)=O)cn2)c(Cl)c1 [Compound I-13]

same assay, conditions: inhibition activity on human ACC2, Table 80; read-out: IC50

Row | IC50 [µM] | Compound
26 | 0.37 | CCCOc1ccc(Oc2ncc(/C=C/[C@H](C)NC(=O)c3ccncc3)s2)c(Cl)c1 [Compound I-169]
27 | 1.4 | CCOCn1ccnc1-c1cc(C(=O)N[C@@H](C)/C=C/c2cnc(Oc3ccc(OCC4CC4)cc3Cl)s2)ccn1 [Compound I-158]
28 | 0.11 | CCOc1ccc(Oc2ccc(/C=C/[C@H](C)NC(N)=O)cn2)c(Cl)c1 [Compound I-184]
29 | 1.8 | CC(C)S(=O)(=O)NCCC(=O)N[C@@H](C)/C=C/c1cnc(Oc2ccc(OCC3CC3)cc2Cl)s1 [Compound I-134]
30 | 1.1 | CCNC(=O)N[C@@H](C)/C=C/c1cnn(Cc2ccc(OCC3CC3)cc2Cl)c1 [Compound I-196]
31 | 0.0045 | C[C@@H](/C=C/c1cnc(Oc2ccc(OCC3CC3)cc2Cl)s1)NC(=O)c1ccnc(C(=O)NC2CCOCC2)c1 [Compound I-209]
32 | 0.69 | C[C@@H](/C=C/c1cnc(Oc2ccc(OCC3CC3)cc2Cl)s1)NC(=O)c1cccc(-c2ncco2)c1 [Compound I-144]
33 | 0.024 | C[C@@H](/C=C/c1cnc(Oc2ccc(OCC3CC3)cc2Cl)s1)NC(=O)c1ccnc(C(=O)NCCN2CCCC2)c1 [Compound I-215]
34 | 0.24 | COCCNC(=O)N[C@@H](C)/C=C/c1cnc(Oc2ccc(OCC3CC3)cc2Cl)s1 [Compound I-189]
35 | 0.41 | C[C@@H](/C=C/c1cnc(Oc2ccc(OCC3CC3)cc2Cl)s1)NC(=O)c1ccnc(NCCO)c1 [Compound I-243]

same assay, conditions: inhibition activity on human ACC2, Table 82; read-out: IC50

Row | Compound | IC50 [µM]
36 | CC(=O)N[C@@H](C)/C=C/c1ccc(Oc2ccc(-c3ccc(C#N)nc3)cc2Cl)nc1 [Compound I-376] | 1.1
37 | CC(=O)N[C@@H](C)/C=C/c1cnc(Oc2ccc(OCC3CC3)cc2Cl)c(Cl)c1 [Compound I-335] | 0.015
38 | CC(=O)N[C@@H](C)/C=C/c1ccc(Oc2ccc(-c3ccc(C#N)cc3)c(Cl)c2)nc1 [Compound I-377] | 0.039
39 | CC(=O)N[C@@H](C)/C=C/c1ccc(Oc2ccc(-c3cccc(C#N)c3)cc2Cl)nc1 [Compound I-346] | 0.44
40 | CC(=O)N[C@@H](C)/C=C/c1ccc(Oc2ccc(-c3ccccc3C#N)cc2Cl)nc1 [Compound I-347] | 0.3

Next, values leading:

Row | IC50 [µM] | Compound
41 | 0.025 | CCC(F)c1ccc(Oc2ccc(/C=C/[C@H](C)NC(C)=O)cn2)c(Cl)c1 (stereo partly drawn) [Compound I-373]
42 | 0.44 | CC(=O)N[C@@H](C)/C=C/c1ccc(Oc2ccc(-c3cccnc3)cc2Cl)nc1 [Compound I-326]
43 | 0.033 | CCCc1cc(F)c(Oc2ccc(/C=C/[C@H](C)NC(C)=O)cn2)c(Cl)c1 [Compound I-372]
44 | 0.046 | CC(=O)N[C@@H](C)/C=C/c1ccc(Oc2ccc(-c3cccc(C)c3)cc2Cl)nc1 [Compound I-343]
45 | 0.34 | CC(=O)N[C@@H](C)/C=C/c1ccc(Oc2ccc(C(C)=O)cc2Cl)nc1 [Compound I-327]
46 | 0.13 | CC(=O)N[C@@H](C)/C=C/c1ccc(Oc2ccc(OS(=O)(=O)C(F)(F)F)cc2Cl)nc1 [Compound I-331]
47 | 0.06 | CC(=O)N[C@@H](C)/C=C/c1ccc(Oc2ccc(CC(C)(C)C)cc2Cl)nc1 [Compound I-371]

same assay, conditions: inhibition activity on human ACC2, Table 84; read-out: IC50

Row | Compound | IC50 [µM]
48 | CC(=O)N[C@@H](C)/C=C/c1ccc(Oc2cc3sc(C(C)C)nc3cc2Cl)nc1 [Compound I-488] | 0.011
49 | CC(=O)N[C@@H](C)/C=C/c1ccc(Oc2ccc(N3CCCCC3)nc2)nc1 [Compound I-516] | 0.17
50 | CC(=O)N[C@@H](C)/C=C/c1cnc(Oc2cc3c(cc2Cl)OC(C)(C)C3)cn1 [Compound I-508] | 0.23
51 | CCOc1ccc(OCc2cccc(/C=C/[C@H](C)NC(C)=O)c2)c(Cl)c1 [Compound I-506] | 0.0082
52 | CC(=O)N[C@@H](C)/C=C/c1cnc(Oc2ccc(OCC3CC3)cc2Cl)c(C#N)c1 [Compound I-445] | 0.26
53 | CC(=O)N[C@@H](C)/C=C/c1ccc(Oc2ccc3c(c2)CC(C)(C)O3)nc1 [Compound I-498] | 0.027
54 | CC(=O)N[C@@H](C)/C=C/c1ccc(Oc2ccc3nc(C(C)C)sc3c2Cl)nc1 [Compound I-477] | 0.0069
55 | CC(=O)N[C@@H](C)/C=C/c1ccc(Oc2ccc3c(c2)C(=O)N(CC2CC2)CC3)nc1 [Compound I-518] | 0.8

Second part, the molecule after the results:

Row | IC50 [µM] | Compound
56 | 0.043 | CCCC(F)(CC)c1ccc(Oc2ccc(/C=C/[C@H](C)NC(C)=O)cn2)c(Cl)c1 (stereo partly drawn) [Compound I-467]
57 | 0.1 | CC(=O)N[C@@H](C)/C=C/c1ccc(Oc2ccc(C3(C)CC3(F)F)cc2Cl)nc1 (stereo partly drawn) [Compound I-434]
58 | 0.014 | CC(=O)N[C@@H](C)/C=C/c1ccc(Oc2ccc(C3CC3C)cc2Cl)nc1 (stereo partly drawn) [Compound I-494]
59 | 0.23 | CCCc1cc(Cl)cc(Oc2ccc(/C=C/[C@H](C)NC(C)=O)cn2)c1 [Compound I-470]
60 | 0.03 | CC(=O)N[C@@H](C)/C=C/c1ccc(Oc2ccc3nc(C)sc3c2Cl)nc1 [Compound I-455]
61 | 0.051 | CC(=O)N[C@@H](C)/C=C/c1cnc(Oc2ccc(C(C)(C)C)cc2Cl)cn1 [Compound I-497]
62 | 0.036 | CCCc1cccc(Oc2ccc(/C=C/[C@H](C)NC(C)=O)cn2)c1Cl [Compound I-469]
63 | 0.049 | CCCc1ccc(Oc2cnc(/C=C/[C@H](C)NC(C)=O)cn2)c(Cl)c1 [Compound I-433]

same assay, conditions: inhibition activity on human ACC2, untitled table (Table 81); read-out: IC50

Row | Compound | IC50 [µM]
64 | CC(=O)N[C@@H](C)/C=C/c1cnc(Oc2ccc(NC3CCCC3)c(Cl)c2)nc1 [Compound I-285] | 0.096
65 | CCOc1ccc(Oc2cnc(/C=C/[C@H](C)NC(C)=O)cn2)cc1Cl [Compound I-299] | 0.038
66 | CCNC(=O)c1cc(C(=O)N[C@@H](C)/C=C/c2cnn(Cc3ccc(Cl)c(Cl)c3)c2)ccn1 [Compound I-310] | 1.3
67 | CC(=O)N[C@@H](C)/C=C/c1ccc(Oc2ccnc(OCC3CC3)c2)nc1 [Compound I-255] | 0.087
68 | CCOc1cc(F)cc(Oc2ccc(/C=C/[C@H](C)NC(C)=O)cn2)c1 [Compound I-276] | 0.15
69 | CC(=O)N[C@@H](C)/C=C/c1cnc(Oc2ccc(Br)c(Cl)c2)nc1 [Compound I-274] | 0.35
70 | CCCc1cncc(Oc2ccc(/C=C/[C@H](C)NC(C)=O)cn2)c1 [Compound I-302] | 0.51
71 | CC(=O)N[C@@H](C)/C=C/c1cnn(Cc2cc(Cl)c(OCC3CC3)c(Cl)c2)c1 [Compound I-264] | 0.84

The next lines start with the values.

Row | IC50 [µM] | Compound
72 | 0.017 | CCC(C)(C)c1ccc(Oc2ccc(/C=C/[C@H](C)NC(C)=O)cn2)c(Cl)c1 [Compound I-253]
73 | 0.15 | CCCc1ncc(Oc2ccc(/C=C/[C@H](C)NC(C)=O)cn2)cc1Cl [Compound I-294]
74 | 0.044 | CC(=O)N[C@@H](C)/C=C/c1ccc(Oc2ccc(-c3ccccc3)cc2Cl)nc1 [Compound I-267]
75 | 0.017 | CC#Cc1ccc(Oc2ccc(/C=C/[C@H](C)NC(C)=O)cn2)c(Cl)c1 [Compound I-275]

Source: patent US20150246938A1, “NOVEL OLEFIN DERIVATIVE” (SHIONOGI & CO., LTD., priority 2011, published 2015)
